Consider 3 molecules from patent publication US11147847B2, “Extracts from plants of the Moringaceae family and methods of making” (Rutgers, The State University of New Jersey, priority 2013, dated 2021).

A short description of series [1]: Accelerated stability of MICs in moringa extract at 37° C. (LCMS). Type of series: physicochemical. As to conditions: moringa extract stored at 37° C. for 30 days, compared to day 0.
For series [2] the following is noted: 1:5 ratio preparations, rotoevaporation 1 hour at 50° C., compared to freeze-dried samples. An excerpt: Drying the 1:5 ratio preparations can be achieved by rotoevaporation, followed by freeze-drying or spray drying. […] Further concentration of MICs and removal of sugars from the extract can also be performed with solid phase-extraction (SPE).
A further series relates to iNOS. Briefly: LPS-induced iNOS gene expression in RAW 264.7 macrophages (qPCR). Format: cell-based. The conditions noted are these: 1 and 5 μM; LPS-induced RAW 264.7. Here is the method: (§1) All reagents were supplied from Sigma-Aldrich Co. (St. Louis, Mo.) unless otherwise noted. RAW 264.7 macrophages (ATCC TIB-71) were maintained in Dulbecco's modified Eagle's medium (Caisson, North Logan, Utah) supplemented with 100 U/mL penicillin, 100 μg/mL streptomycin, and 10% fetal bovine serum. Cells were incubated at 37° C. in a 5% CO2 humidified atmosphere and subcultured by cell scraping. For experiments, RAW cells were plated at a density of 4×10^5 cells/mL in 24-well plates. Cells were incubated overnight (18 h), washed with warm 37° C. PBS, and medium was replaced fresh DMEM medium. […] Lipopolysaccharide (1 μg/mL) was added after 2 h incubation with treatments to elicit inflammatory responses. Cells were treated in duplicate or triplicate. After an additional 6 h incubation period, media were collected and cells were washed with PBS prior to collection in TRIzol® Reagent (Ambion, Life Technologies). […]
(§2) Total RNA was extracted from cells according to manufacturer's specifications. […] RNA integrity was evaluated by running about 1 μg of RNA on a 1% agarose gel. […]
(§3) Quantitative PCR amplifications were performed on an ABI 7300 Real-Time PCR System (Applied Biosystems) with the following thermal cycler profile: 2 minutes, 50° C.; 10 minutes, 95° C.; 15 seconds, 95° C.; 1 minute, 60° C. for the dissociation stage; 15 seconds, 95° C.; 1 minutes, 60° C.; and 15 seconds, 95° C. […]

In another series the test system is IL-1β. Briefly: LPS-induced IL-1β gene expression in RAW 264.7 macrophages (qPCR). Format: cell-based. The conditions noted are these: 1 and 5 μM; LPS-induced RAW 264.7. On the procedure: as §1, §2, §3
For orientation: In qPCR the cycle at which signal appears reflects the starting amount.

In the next series the test system is IL-6. Kind of series: LPS-induced IL-6 gene expression in RAW 264.7 macrophages (qPCR). The conditions noted are these: 5 μM; LPS-induced RAW 264.7. Type of series: cell-based. Here is the method: as §1, §2, §3
Another series relates to TNF-α. Briefly: LPS-induced TNF-α gene expression in RAW 264.7 macrophages (qPCR). As to conditions: any of the concentrations tested; LPS-induced RAW 264.7. Type of series: cell-based. Here is the method:
as §1, §2, §3

In the next series the test system is RAW 264.7 macrophages. Kind of series: MTT-based cell viability assay. The conditions noted are these: concentrations tested in anti-inflammatory assays. Here is the method:
The effect of the treatments on cell viability was measured using MTT [3-(4,5-dimethyl-2-thiazolyl)-2,5-diphenyltetrazolium bromide] (TCI, Portland, Oreg.) (Mosmann, 1983). MTT (5 mg/mL) was dissolved in PBS (Cayman Chemical, Ann Arbor, Mich.), filtered through a 0.22 μm membrane and added to treated cells during the last 3-4 hours of treatment. Media were carefully aspirated and cells were dissolved in DMSO. The absorbance was read at 570 nm.

Another series concerns HII4E liver cells. Kind of series: In vitro gluconeogenesis: glucose production in liver cells. Type of series: cell-based, rat. The conditions noted are these: same concentrations as SF. Here is the method: (§4) H4IIE rat hepatoma cells (CRL-1548, American Type Culture Collection, Manassas, Va.) were assayed for glucose production as previously described (21). Cell viability was measured by the 3-(4,5-Dimethyl-2-thiazolyl)-2,5-diphenyltetrazolium bromide (MTT; TCI, Portland, Oreg.) assay (22). RNA extraction, cDNA synthesis and qPCR for gene expression of PEPCK and G6P were performed as described above.

Assay in series [3]: as above
The conditions noted are these: Rattus norvegicus; range of 5 concentrations, HII4E liver cells. Type of series: cell-based, rat. On the procedure:
as §4

In the case of `C[C@@H]1O[C@@H](Oc2ccc(CN=C=S)cc2)[C@H](O)[C@H](O)[C@H]1O` [MIC-1, 4-[(α-rhamnosyloxy)benzyl]isothiocyanate], in series [1], the “degradation of MIC in moringa extract” value was “approximately 80%”. Moreover, the “loss of MIC under rotoevaporation conditions” value in series [2] is “No significant loss”. The “mRNA expression of iNOS” value with iNOS is “significant reduction”. In addition, the “mRNA expression of IL-1β” value in the series on IL-1β was “significant reduction”. The IL-6 gene expression result in the series on IL-6 was “decrease IL-6 gene expression significantly”. Moreover, the TNF-α gene expression result in the series on TNF-α is reported as “no reduction”. Moreover, the “cytotoxicity (MTT-based cell viability)” value in the series with RAW 264.7 macrophages is given as “no signs of cytotoxicity”. The “glucose production, activity compared to SF” value in the series with HII4E liver cells is listed as “superior activity to SF”.

`CC(=O)O[C@@H]1[C@@H](O)[C@@H](O)[C@H](Oc2ccc(CN=C=S)cc2)O[C@H]1C` [MIC-4, 4-[(4′-O-acetyl-α-rhamnosyloxy)benzyl]isothiocyanate]: in [1], the “degradation of MIC in moringa extract” value is given as ~20%. Moreover, the “loss of MIC under rotoevaporation conditions” value in [2] was “No significant loss”. Moreover, the “mRNA expression of iNOS” value in the series on iNOS is recorded as “significant reduction”. In the series on IL-1β, the “mRNA expression of IL-1β” value was “significant reduction”. Besides, the TNF-α gene expression result with TNF-α was “no reduction”. Further, the “cytotoxicity (MTT-based cell viability)” value with RAW 264.7 macrophages is on record as “no signs of cytotoxicity”. In the series on HII4E liver cells, the “glucose production, activity compared to SF” value is “superior activity to SF”.

Consider `CN(C)C(=N)N=C(N)N` [metformin, reference compound], for which half-maximal inhibition in [3] (IC50) required 800 µM.

The IC50 is the midpoint of a concentration-inhibition curve.
